In patent US9662328B2, “Targeting human thymidylate kinase induces DNA repair toxicity in malignant tumor cells” (NATIONAL YANG-MING UNIVERSITY, priority 2010, dated 2017) one finds inhibition and IC50 data, which are given here for 32 compounds.

Test [1] has as its target T1, hTMPK (Homo sapiens, UniProt P23919).
T1 sequence (P23919 1-212): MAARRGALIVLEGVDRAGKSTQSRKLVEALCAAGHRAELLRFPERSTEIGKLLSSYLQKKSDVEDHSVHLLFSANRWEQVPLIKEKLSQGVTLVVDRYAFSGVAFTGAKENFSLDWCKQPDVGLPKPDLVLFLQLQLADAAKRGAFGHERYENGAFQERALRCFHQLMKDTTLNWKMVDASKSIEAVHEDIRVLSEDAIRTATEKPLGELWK
Briefly: In vitro inhibitory activity against human TMPK at 2 μM. It is filed as biochemical. The conditions noted are these: test compounds at 2 μM concentration. The method, then: (§1) The TMPK reaction was started by adding purified hTMPK in 50 μl of TMPK assay buffer (100 mM Tris-HCl, pH 7.5, 100 mM KCl, 10 mM MgCl2, 50 μM ATP and 100 μM dTMP) in 96 wells plate at 25° C. for 10 min and terminated by adding 200 μl of DTNB (100 μM), followed by transferring 10 μl of reaction solution to a white 96-wellplate containing 90 μl of luciferase assay buffer (50 mM Glycine, 0.5 mM EDTA and 5 mM EDTA, pH 7.0, 0.1 μg of luciferase, 50 μM luciferin and 0.1% BSA). The luminescence was measured with a luminescence counter (Packard).
(§2) All reactions were performed in 96-well plates in an assay volume of 100 μl. The activity of hTMPK was measured at 25° C. using a modified NADH coupled colorimetric assay as described (Agarwal et al., 1978; Miyata et al., 2003; Ostermann et al., 2003), in which purified hTMPK was added to the buffer containing 100 mM Tris-HCl, pH 7.5, 100 mM KCl, 10 mM MgCl2, 0.5 mM phosphoenol pyruvate, 0.25 mM NADH, 5 units of lactate dehydrogenase, 4 units of pyruvate kinase, 1 mM ATP, and 200 μM dTMP. The change of NADH was measured by reading the absorbance at 340 nm. One unit of TMPK activity is defined as the conversion of […] of TMP to TDP per minute.
The in vitro inhibitory activities of test compounds (at 2 μM concentration) against human TMPK are shown in Table 3 and compared with that of YMU1 and YMU2.

Test [2] addresses T1, hTMPK. The test is described as follows: IC50 determination by enzymatic assay. It counts as biochemical. Here is the method: as §1, §2
In one embodiment, the IC50 values were determined by enzymatic assay.

The compound `CC(C)(C)OC(=O)N1CCN(C(=O)Cn2sc3ncccc3c2=O)CC1` [I-a-1, Tert-butyl 4-(2-(3-oxoisothiazolo[5,4-b]pyridin-2(3H)-yl)acetyl)piperazine-1-carboxylate] gave an inhibition at 2 µM in test [1] of 77 ± 4%.
For `O=C(Cn1sc2ncccc2c1=O)N1CCN(C(=O)Oc2ccc([N+](=O)[O-])cc2)CC1` [I-a-2, 4-Nitrophenyl 4-(2-(3-oxoisothiazolo[5,4-b]pyridin-2(3H)-yl)acetyl)piperazine-1-carboxylate], the inhibition at 2 µM in test [1] came to 80 ± 10%.
Compound `Cc1cc(N)nc2sn(CC(=O)N3CCN(C(=O)OC(C)(C)C)CC3)c(=O)c12` [I-a-3, Tert-butyl 4-[(6-amino-4-methyl-3-oxoisothiazolo[5,4-b]pyridin-2(3H)-2-yl)acetyl]piperazine-1-carboxylate] yielded an inhibition at 2 µM in test [1] of 16 ± 5%.
The compound `Cc1cc(N)nc2sn(CC(=O)N3CCN(C(=O)Oc4ccc([N+](=O)[O-])cc4)CC3)c(=O)c12` [I-a-4, 4-Nitrophenyl 4-[2-(6-amino-4-methyl-3-oxoisothiazolo[5,4-b]pyridin-2(3H)-yl)acetyl]piperazine-1-carboxylate] gave an inhibition at 2 µM in test [1] of 10 ± 7%.
In test [1], `Cc1cc(O)nc2sn(CC(=O)N3CCN(C(=O)OC(C)(C)C)CC3)c(=O)c12` [I-a-5, Tert-butyl 4-[(6-hydroxy-4-methyl-3-oxoisothiazolo[5,4-b]pyridin-2(3H)-2-yl)acetyl]piperazine-1-carboxylate] displayed an inhibition at 2 µM of 93 ± 9%. The IC50 in test [2] is 500 nM.
For the compound `Cc1cc(C)c2c(=O)n(CC(=O)N3CCN(C(=O)CNC(=O)Nc4ccccc4)CC3)sc2n1` [I-b-2, 1-(2-(4-(2-(4,6-Dimethyl-3-oxoisothiazolo[5,4-b]pyridin-2(3H)-yl)acetyl)piperazin-1-yl)-2-oxoethyl)-3-phenylurea], the inhibition at 2 µM in test [1] stood at 32 ± 2%.
Same read-out and setting: next, `Cc1cc(C)c2c(=O)n(CC(=O)N3CCN(C(=O)CI)CC3)sc2n1` [I-b-3, 4,6-Dimethyl-2-[2-(4-(2-iodoacetyl)piperazin-1-yl)-2-oxoethyl]-isothiazolo[5,4-b]pyridin-3(2H)-one]: 29 ± 3%; `O=C(Cn1sc2ncccc2c1=O)N1CCNCC1` [I-c-1, 2-(2-Oxo-2-(piperazin-1-yl)ethyl)isothiazolo[5,4-b]pyridin-3(2H)-one]: 75 ± 11%; `Cc1cc(C)c2c(=O)n(CC(=O)N3CCNCC3)sc2n1` [I-c-2, 4,6-Dimethyl-2-(2-oxo-2-(piperazin-1-yl)ethyl)isothiazolo[5,4-b]pyridin-3(2H)-one]: 46 ± 2%.
In turn, `Cc1cc(N)nc2sn(CC(=O)N3CCNCC3)c(=O)c12` [I-c-3, 6-Amino-4-methyl-2-[2-oxo-2-(piperazin-1-yl)ethyl]isothiazolo[5,4-b]pyridin-3(2H)-one] came in with an inhibition at 2 µM in test [1] of 6 ± 5%.
In turn, `CCOC(=O)N1CCN(C(=O)Cn2sc3ccccc3c2=O)CC1` [I-d-1, Ethyl 4-(2-(3-oxobenzo[d]isothiazol-2(3H)-yl)acetyl)piperazine-1-carboxylate] came in with an inhibition at 2 µM in test [1] of 79 ± 5%.
`CC(C)(C)OC(=O)N1CCN(C(=O)Cn2sc3ccccc3c2=O)CC1` [I-d-2, Tert-butyl 4-(2-(3-oxobenzo[d]isothiazol-2(3H)-yl)acetyl)piperazine-1-carboxylate] returned an inhibition at 2 µM in test [1] of 100 ± 9%.
For the compound `O=C(Cn1sc2ccccc2c1=O)N1CCN(C(=O)OCc2ccccc2)CC1` [I-d-3, Benzyl 4-(2-(3-oxobenzo[d]isothiazol-2(3H)-yl)acetyl)piperazine-1-carboxylate], the inhibition at 2 µM in test [1] was 54 ± 1%.
In test [1], `CC(C)(C)OC(=O)N1CCN(C(=O)Cn2sc3cccc(F)c3c2=O)CC1` [I-d-5, Tert-butyl 4-(2-(4-fluoro-3-oxobenzo[d]isothiazol-2(3H)-yl)acetyl)piperazine-1-carboxylate] gave an inhibition at 2 µM of 56 ± 4%.
As to `CC(C)(C)OC(=O)N1CCN(C(=O)Cn2sc3c(F)cccc3c2=O)CC1` [I-d-8, Tert-butyl 4-(2-(7-fluoro-3-oxobenzo[d]isothiazol-2(3H)-yl)acetyl)piperazine-1-carboxylate], in test [1], testing at 2 µM gave an inhibition of 25 ± 3%.
In the case of `CC(C)(C)OC(=O)N1CCN(C(=O)Cn2sc3cc(Cl)ccc3c2=O)CC1` [I-d-9, Tert-butyl 4-(2-(6-chloro-3-oxobenzo[d]isothiazol-2(3H)-yl)acetyl)piperazine-1-carboxylate], in test [1], at 2 µM the inhibition was 55 ± 7%.
Regarding `CC(C)(C)OC(=O)N1CCN(C(=O)Cn2sc3cc(Br)ccc3c2=O)CC1` [I-d-10, Tert-butyl 4-(2-(6-bromo-3-oxobenzo[d]isothiazol-2(3H)-yl)acetyl)piperazine-1-carboxylate], at 2 µM the inhibition in test [1] was 56%.
On to `O=C(Cn1sc2cc(Br)ccc2c1=O)N1CCN(C(=O)Oc2ccc([N+](=O)[O-])cc2)CC1` [I-d-11, 4-Nitrophenyl 4-(2-(6-bromo-3-oxobenzo[d]isothiazol-2(3H)-yl)acetyl)piperazine-1-carboxylate], for which, in test [1], the inhibition at 2 µM turned out to be 86 ± 6%.
As for `CC(C)(C)OC(=O)N1CCN(C(=O)Cn2sc3cc(C(F)(F)F)ccc3c2=O)CC1` [I-d-12, Tert-butyl4-(2-(3-oxo-6-(trifluoromethyl)benzo[d]isothiazol-2(3H)-yl)acetyl)-piperazine-1-carboxylate], in test [1], the inhibition at 2 µM stood at 84 ± 1%.
Regarding `CC(C)(C)OC(=O)N1CCN(C(=O)Cn2sc3cc(N)ccc3c2=O)CC1` [I-d-13, Tert-butyl 4-(2-(6-amino-3-oxobenzo[d]isothiazol-2(3H)-yl)acetyl)piperazine-1-carboxylate], testing at 2 µM in test [1] gave an inhibition of 39 ± 14%.
Take `CC(C)(C)OC(=O)N1CCN(C(=O)Cn2sc3cc(N=[N+]=[N-])ccc3c2=O)CC1` [I-d-14, tert-butyl 4-(2-(6-azido-3-oxobenzo[d]isothiazol-2(3H)-yl)acetyl)piperazine-1-carboxylate]: in test [1], at 2 µM the inhibition was 66 ± 5%.
`COc1ccc2c(=O)n(CC(=O)N3CCN(C(=O)OC(C)(C)C)CC3)sc2c1` [I-d-15, Tert-butyl 4-(2-(6-methoxy-3-oxobenzo[d]isothiazol-2(3H)-yl)acetyl)piperazine-1-carboxylate] displayed an inhibition at 2 µM in test [1] of 51 ± 9%.
Turning to `CC(C)(C)OC(=O)N1CCN(C(=O)Cn2sc3cc(O)ccc3c2=O)CC1` [I-d-16, Tert-butyl 4-(2-(6-hydroxy-3-oxobenzo[d]isothiazol-2(3H)-yl)acetyl)piperazine-1-carboxylate], the inhibition at 2 µM in test [1] is 22 ± 12%.
As for `CC(C)(C)OC(=O)N1CCN(C(=O)Cn2sc3cc(O[Si](C)(C)C(C)(C)C)ccc3c2=O)CC1` [I-d-17, Tert-butyl 4-(2-(6-((tert-butyldimethylsilyl)oxy)-3-oxobenzo[d]isothiazol-2(3H)-yl)-acetyl)piperazine-1-carboxylate], in test [1], the inhibition at 2 µM turned out to be 80 ± 4%.
`CCCCCCCCc1cn(-c2ccc3c(=O)n(CC(=O)N4CCN(C(=O)OC(C)(C)C)CC4)sc3c2)nn1` [I-d-18, Tert-butyl 4-(2-(6-(4-octyl-1H-1,2,3-triazol-1-yl)-3-oxobenzo[d]isothiazol-2(3H)-yl)acetyl)piperazine-1-carboxylate] showed an inhibition at 2 µM in test [1] of 78 ± 7%.
The compound `O=C(CI)N1CCN(C(=O)Cn2sc3ccccc3c2=O)CC1` [I-e-1, 2-[2-(4-(2-Iodoacetyl)piperazin-1-yl)-2-oxoethyl]benzo[d]isothiazol-3(2H)-one] registered an inhibition at 2 µM in test [1] of 31 ± 5%.
Take `O=C(CN=C=S)N1CCN(C(=O)Cn2sc3ccccc3c2=O)CC1` [I-e-4, 2-(2-(4-(2-Isothiocyanatoacetyl)piperazin-1-yl)-2-oxoethyl)benzo[d]isothiazol-3(2H)-one]: the inhibition at 2 µM in test [1] amounted to 63 ± 10%.
On to `COc1ccc(NC(=O)NCC(=O)N2CCN(C(=O)Cn3sc4ccccc4c3=O)CC2)cc1` [I-e-6, 1-(4-Methoxyphenyl)-3-(2-oxo-2-(4-(2-(3-oxobenzo[d]isothiazol-2(3H)-yl)acetyl)piperazin-1-yl)ethyl)urea], for which, in test [1], the inhibition at 2 µM came out at 55 ± 7%.
In test [1], `CCCCNC(=O)NCC(=O)N1CCN(C(=O)Cn2sc3ccccc3c2=O)CC1` [I-e-7, Butyl-3-(2-oxo-2-(4-(2-(3-oxobenzo[d]isothiazol-2(3H)-yl)acetyl)piperazin-1-yl)ethyl)urea] came in with an inhibition at 2 µM of 50 ± 5%.
In test [1], `O=C(Cn1sc2ccccc2c1=O)N1CCNCC1` [I-f-1, 2-(2-Oxo-2-(piperazin-1-yl)ethyl)benzo[d]isothiazol-3(2H)-one] displayed an inhibition at 2 µM of 34 ± 2%.
Regarding `O=C(Cn1sc2cc(Br)ccc2c1=O)N1CCNCC1` [I-f-2, 6-Bromo-2-(2-oxo-2-(piperazin-1-yl)ethyl)benzo[d]isothiazol-3(2H)-one], at 2 µM the inhibition in test [1] was 38 ± 14%.
Consider `Cc1cc(C)c2c(=O)n(CC(=O)N3CCN(C(=O)OC(C)(C)C)CC3)sc2n1` [YMU2, reference compound], for which, in test [1], the inhibition at 2 µM came to 46 ± 2%.
